“Also recorded” adds a separate entry of the source.
Columns and labels:
[1] = molecular target: T1, PYL2 receptor-HAB1 complex (Arabidopsis thaliana, UniProt O80992); test: HAB1 phosphatase activity assay (SnRK2.6 phosphorylated polypeptide as substrate); assay type: biochemical; conditions: FIG. 1a-1g; 100 nM HAB1, 500 nM PYL2
T1 construct: made in house; host or cells: E. coli BL21 (DE3)
T1 sequence (O80992 14-188): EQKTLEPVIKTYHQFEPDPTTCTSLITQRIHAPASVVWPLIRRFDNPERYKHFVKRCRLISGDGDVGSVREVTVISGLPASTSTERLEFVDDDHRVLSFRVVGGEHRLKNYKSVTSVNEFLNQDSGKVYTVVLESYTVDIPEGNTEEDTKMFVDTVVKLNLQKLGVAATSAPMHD
T1 sequence (Q9CAJ0 172-511 partner limits assumed): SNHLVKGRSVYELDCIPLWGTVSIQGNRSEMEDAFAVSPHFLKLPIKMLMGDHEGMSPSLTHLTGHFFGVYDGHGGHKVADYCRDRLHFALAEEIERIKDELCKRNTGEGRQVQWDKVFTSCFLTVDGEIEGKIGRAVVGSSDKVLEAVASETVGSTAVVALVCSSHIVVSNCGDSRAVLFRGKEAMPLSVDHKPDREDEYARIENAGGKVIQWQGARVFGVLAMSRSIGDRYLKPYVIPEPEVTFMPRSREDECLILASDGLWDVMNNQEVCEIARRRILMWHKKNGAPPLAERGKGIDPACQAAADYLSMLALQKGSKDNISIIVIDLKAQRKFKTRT
Procedure: 50 mM imidazole, pH 7.2, 5 mM MgCl2, 0.1% β-mercaptoethanol, 0.5 μg·ml^−1 BSA, 100 nM HAB1 protein with a Biotin tag sequence, 500 nM PYL2 receptor protein with 6×His-SUMO dual tag sequence and the corresponding concentration of (+)-ABA/0224/0304/0706/0708/0713/0715/1028c/0428/1022B/NC0F4 were contained in the reaction system. The reaction system was incubated at room temperature for 30 minutes, followed by a further reaction for 30 minutes after adding an 11-amino acid phosphorylated polypeptide as a substrate. The phosphorylated polypeptide is amino acid 170-180 of SnRK2.6 protein kinase, wherein phosphorylated serine at position 175 (with a sequence of HSQPKpSTVGTP, purchased from Kingsley Company) was a known HAB1 dephosphorylation target site. After 30 minutes, chromogenic reagent (purchased from BioVision) was added and the absorbance at 650 nm was read on a microplate reader (Molecular Devices).

soybean = test: Soil drought experiment, soybean; assay type: in vivo
Procedure: Soybean, cotton and wheat for leaf transpiration experiments were used simultaneously for soil drought experiments, each pot was filled with the same weight of soil to reduce experimental error. All the soybean plants were subjected to a long-day culture at 26° C. 14 days after sowing, watering was stopped and the plants with the consistent growth condition were selected for drought treatment. At the start of the drought, a solution containing 0.1% Tween-20 and 20 μM (+)-ABA/0224/0304 or 0.1% Tween-20 and 0.05% DMSO (control) was sprayed onto the leaf surface once with a spray amount of 4 ml solution/pot. Meanwhile, the position of the pot was changed and re-watered 6 days after the drought, and the photos were taken 1 day after re-watering. The drought experiment of cotton was similar to that of soybeans, watering was stopped 25 days after sowing, the plants with the consistent growth condition were selected for drought treatment. At the start of the drought, a solution containing 0.1% Tween-20 and 20 μM (+)-ABA/0224 or 0.1% Tween-20 and 0.05% DMSO (control) was sprayed onto the leaf surface once with a spray amount of 4 ml solution/pot, and then sprayed once every 3 days. Meanwhile, the position of the pot was changed and re-watered 6 days after the drought, and the photos were taken before re-watering and 1 day after re-watering. In the drought experiment of wheat, the wheat with the consistent growth condition 16 days after sowing was selected for the drought treatment, at the start of the drought, a solution with 0.1% Tween-20 and 100 μM (+)-ABA/0224 or 0.1% Tween-20 and 0.05% DMSO (control) was sprayed once, and then sprayed once every 3 days with a spray amount of 4 ml/pot. Meanwhile, the position of the pot was changed and the photos were taken 6 days after the drought.
Soil drought experiments used for compound 0428 on soybean and maize were similar to that used for compound 0224 on soybeans, with only one plant contained in each pot. All soybean plants were long-day cultured at 26° C. […]

[2] = 20 μM sprayed once, re-watering after 6 days of drought, FIG. 8

Q: For CCCN1C(=O)OC(C)c2cc(NS(=O)(=O)Cc3c(F)c(F)c(C)c(F)c3F)ccc21 (centres unmarked) [Compound 0224], which “inhibition of HAB1 protein phosphatase activity by promoting binding between PYL2 receptor and HAB1” value (shortened to “inhibition”) [1] is on record?
A: Its value is “inhibiting the activity of protein phosphatase HAB1; also recorded: inhibiting the dephosphorylation effect of HAB1 on SnRK2.6 phosphorylated polypeptide”.

Q: And the “growth after drought and re-watering” value (soybean; [2])?
A: Its value is “significantly better than that of the control group (DMSO) or that of the soybean treated with same concentration of ABA; also recorded: significantly better growth after re-watering than that in the DMSO-sprayed control group and the plants sprayed with the same concentration of ABA”.

Q: Which “inhibition” value [1] does the source give for CCCN1C(=O)OC(C)(C)c2cc(NS(=O)(=O)Cc3c(F)c(F)c(C)c(F)c3F)ccc21 [Compound 0304] here?
A: Its value is “inhibiting the activity of protein phosphatase HAB1; also recorded: inhibiting the dephosphorylation effect of HAB1 on SnRK2.6 phosphorylated polypeptide”.

Q: And the “growth after drought and re-watering” value (soybean; [2])?
A: Its value is “significantly better than that of the control group (DMSO) or that of the soybean treated with same concentration of ABA; also recorded: significantly better growth after re-watering than that in the DMSO-sprayed control group and the plants sprayed with the same concentration of ABA”.

Q: CCCN1C(=O)OCc2cc(NS(=O)(=O)Cc3c(F)c(F)c(C)c(F)c3F)ccc21 [Compound 0428] was tested. Which “inhibition” value [1] did it give?
A: The value was “inhibiting the activity of protein phosphatase HAB1; also recorded: inhibiting the dephosphorylation effect of HAB1 on SnRK2.6 phosphorylated polypeptide”.

Q: What about the “growth after drought and re-watering” value (soybean; 50 μM sprayed once a day for two days, 9 days of drought, FIG. 14a) of the same compound?
A: The value was “significantly better growth after re-watering than that in the DMSO-sprayed control group”.

Q: With CCN1C(=O)OC(C)c2cc(NS(=O)(=O)Cc3c(F)c(F)c(C)c(F)c3F)ccc21 (centres unmarked) [Compound 0706] as the compound, how does the “inhibition” value [1] read?
A: The value was “inhibiting the activity of protein phosphatase HAB1; also recorded: inhibiting the dephosphorylation effect of HAB1 on SnRK2.6 phosphorylated polypeptide”.

Q: How did the “inhibition” value [1] turn out when Cc1c(F)c(F)c(CS(=O)(=O)Nc2ccc3c(c2)C(C)OC(=O)N3CCCF)c(F)c1F (centres unmarked) [Compound 0715] was run?
A: The value was “inhibiting the activity of protein phosphatase HAB1; also recorded: inhibiting the dephosphorylation effect of HAB1 on SnRK2.6 phosphorylated polypeptide”.

Reference: patent US11076597B2, “High stress resistant plant growth regulator and preparation method and use thereof” (SHANGHAI INSTITUTES FOR BIOLOGICAL SCIENCES, CHINESE …, priority 2015, dated 2021)
